Reference: US11013710B2, “Synergistic compositions of bioactive agents for optimizing cellular health” (CELAGENEX RESEARCH (INDIA) PVT. LTD., priority 2018, dated 2021)

Columns and labels:
[1] = system: HepG2 cells; experiment: DNA fragmentation (DNA ladder assay) in HepG2 cells; format: cell-based, Human
Protocol: FIG. 3 depicts DNA ladder assay of test substances on HepG2 cell line; L=100 bp Ladder, Lane 1=AAPH (1 mM), Lane 2=cell control, Lane 3=G3 (250 μg/ml), Lane 4=G4(250 μg/ml), Lane 5=G5 (5:125-250 μg/ml), Lane 6=G3+AAPH, Lane 7=G4+AAPH, Lane 8=G5+AAPH
HepG2 cells (3×10^6/ml) were seeded into 60 mm petri dishes and incubated at 37° C. with 5% CO2 atmosphere for 24 h. The cells were washed with medium and were treated with extract, standard substance and incubated at 37° C., 5% CO2 for 24 hrs. At the incubation time ended, the chromosomal DNA of cancer cells was prepared with G Biosciences, USA apoptotic DNA ladder kit. Total genomic DNA was extracted and resolved on a 1% agarose gel. Apoptotic DNA fragmentation was visualized by ethidium bromide staining under UV transilluminator and photographed. (FIG. 3)

[2] = system: carrageenan induced rat paw edema; experiment: Carrageenan induced rat paw edema model (acute anti-inflammatory activity); format: in vivo; details: for % inhibition of paw edema at 6th hr.: pretreated 1 hr before, L-EGT 0.512 mg/kg, NMN chloride 12.33 mg/kg, combination 0.512+12.33 mg/kg bw, vs positive control; for paw edema compared with Positive control group (G2): result in words
Protocol: In study thirty (30) rats, were divided into total […] groups. […] G3-G4 groups are referred as test substances. Acute anti inflammatory activity was measured using carrageenan induced rat paw edema model. Acute inflammation was induced by the sub planter administration of 0.1 ml of 1% carrageenan (0.9% NaCl solution) in the right hind paw of the rats. Group 1 was treated with normal saline. Group 2 positive control was treated with normal saline (with paw edema induction). Group 3, Group 4 and Group 5 were treated with test substance (G1—0.512 mg/kg, G2—12.33 mg/kg and G3-0.512 mg/kg+12.33 mg/kg bw) respectively. Excluding control group, all groups were pretreated 1 hr before eliciting paw edema. […] The perimeter of paw was measured by using vernier calipers. After the completions of the paw volume measurement animals were anesthetized and blood was collected for biochemical parameter analysis. The anti-inflammatory activity was calculated by following formula % inhibition of edema=((T−T0)/T)×100 T: Thickness of paw in positive control group T0: Thickness of paw edema in the test compound treated groups. The values were expressed in Mean±SEM. The significance of in vivo data was analyzed by One way anova followed by Dunnet test. P<0.05 was considered as statistically significant

[3] = system: IL-6; experiment: Serum IL-6 levels in carrageenan paw edema rats; format: in vivo, Rat; details: for IL-6: rat serum after paw volume measurement, Mean±SEM; for Serum interleukin-6 compared with positive control (G2) / Percentage inhibition over control (serum IL-6): rat serum; for Serum interleukin-6 compared with positive control (G2): result in words; for Percentage inhibition over control (serum IL-6): vs positive control
Protocol: (§1) Acute anti inflammatory activity was measured using carrageenan induced rat paw edema model. Acute inflammation was induced by the sub planter administration of 0.1 ml of 1% carrageenan (0.9% NaCl solution) in the right hind paw of the rats. Group 1 was treated with normal saline. Group 2 positive control was treated with normal saline (with paw edema induction). Group 3, Group 4 and Group 5 were treated with test substance (G1—0.512 mg/kg, G2—12.33 mg/kg and G3-0.512 mg/kg+12.33 mg/kg bw) respectively. Excluding control group, all groups were pretreated 1 hr before eliciting paw edema. The linear paw circumference was measured at Time intervals: 0, 30, 60, 120, 180 and 240 mins. The perimeter of paw was measured by using vernier calipers. After the completions of the paw volume measurement animals were anesthetized and blood was collected for biochemical parameter analysis. The values were expressed in Mean±SEM. The significance of in vivo data was analyzed by One way anova followed by Dunnet test. P<0.05 was considered as statistically significant

[4] = system: TNF-Alpha; experiment: Serum TNF-Alpha levels in carrageenan paw edema rats; format: in vivo, Rat; details: for TNF-Alpha: rat serum after paw volume measurement, Mean±SEM; for Serum TNF-Alpha compared with positive control (G2) / Percentage inhibition over control (serum TNF-Alpha): rat serum; for Serum TNF-Alpha compared with positive control (G2): result in words; for Percentage inhibition over control (serum TNF-Alpha): vs positive control
Protocol: as §1

[5] = system: HepG2 cell line; experiment: In vitro cytotoxicity (MTT) against HepG2 cell line; format: cell-based, Human; details: 72 h
Protocol: In-vitro cytotoxicity of the nutrients, G3, G4 and G5 were tested against HepG2 cell line. Nutrients were taken at concentrations ranging from 1000 μg/ml to 62.5 μg/ml to determine the percentage growth inhibition of individual substance on HepG2 cell line. The samples G3 and G4 produced a CTC50 value of above 1000 μg/ml. […] [Journal of Immunological Methods, 1986; 89:271-277].
The in vitro cytotoxicity was performed for samples G3, G4 and G5 on HepG2 to find toxic concentration and to determine the apoptotic activity of G3, G4 and G5.
(§2) For cytotoxicity studies, 10 mg of test substance was separately dissolved and volume was made up with MEM supplemented with 2% inactivated FBS to obtain a stock solution of 1 mg/ml concentration and sterilized by 0.22μ syringe filtration. Serial two fold dilutions were prepared from this for carrying out cytotoxic studies.
(§3) HepG2 (Human Hepatocyte) cell line was procured from National Centre for Cell Sciences (NCCS), Pune, India. Stock cells were cultured in MEM supplemented with 10% inactivated Fetal Bovine Serum (FBS), penicillin (100 IU/ml), streptomycin (100 μg/ml) and amphotericin B (5 μg/ml) in an humidified atmosphere of 5% CO2 at 7° C. until confluent. The cells were dissociated with TPVG solution (0.2% trypsin, 0.02% EDTA, 0.05% glucose in PBS). The stock cultures were grown in 25 cm^2 culture flasks and all experiments were carried out in 96 microtitre plates (Tarsons India Pvt. Ltd., Kolkata, India).
The monolayer cell culture was trypsinized and the cell count was adjusted to 100,000 cells/ml using DMEM-HG containing 10% FBS. To each well of the 96 well microtitre plate, 0.1 ml of the diluted cell suspension was added. After 24 h, when a partial monolayer was formed, the supernatant was flicked off, washed the monolayer once with medium and 100 μl of different test concentrations of test substances were added on to the partial monolayer in microtitre plates. The plates were then incubated at 37° C. for 3 days in 5% CO2 atmosphere, and microscopic examination was carried out and observations were noted every 24 h interval. After 72 h, the substance solutions in the wells were discarded and 50 μl of MTT in PBS was added to each well. The plates were gently shaken and incubated for 3 h at 37° C. in 5% CO2 atmosphere. The supernatant was removed and 100 μl of propanol was added and the plates were gently shaken to solubilize the formed formazan. The absorbance was measured using a microplate reader at a wavelength of 540 nm. The percentage growth inhibition was calculated using the standard formula and concentration of test substance needed to inhibit cell growth by 50% (CTC50) values is generated from the dose-response curves for each cell line.
as §2, with “substance powder” for “substance”, “with DMEM” for “with MEM”, “of 10” for “of 1”
as §3, with “DMEM” for “MEM”, “37°” for “7°”, “cm2” for “cm^2”
The monolayer cell culture was trypsinized and the cell count was adjusted to 100,000 cells/ml using medium containing 10% FBS. To each well of the 96 well microtitre plate, 0.1 ml of the diluted cell suspension was added. […]

[6] = system: Nrf2; experiment: In vitro gene expression of Nrf2 (RT-PCR) in HepG2; format: cell-based, Human; details: HepG2, 250 μg/ml; cell control 1.00
Protocol: Nrf2 were estimated for the test substance by gene expression method, where the level of expression of Nrf2 expression on Human Hepatocytes (HepG2) was determined with respect to untreated HepG2 cells. The HepG2 cells treated with drug were subjected to cell lysis by treating with Tri-extract reagent. Chloroform was added, to isolate the total RNA from the sample and subjected for centrifugation. […] After the incubation followed by centrifugation, appropriate volume of ethanol was added to resuspend the pellet. After incubation and centrifugation, the pellet was air dried and appropriate volume of TAE buffer was added. […] The cDNA thus synthesized was taken up for Polymerase chain reaction (PCR) for the amplification of Nrf2 and Glyceraldehyde 3-phosphate dehydrogenase GAPDH (internal control). The mRNA expression levels of Nrf2 were determined using semi-quantitative reverse transcriptase-polymerase chain reaction (RT-PCR). 50 μl of the reaction mixture was subjected to PCR for amplification of Nrf2. cDNAs using specifically designed primers procured from Eurofins, India and as an internal control GAPDH (House keeping gene) was co-amplified with each reaction. Nrf2: 95° C. for 5 min followed by 35 cycles of denaturation at 95° C. for 30 seconds, annealing Tm for 30 seconds and extension at 72° C. for 45 seconds. This was followed by final extension at 72° C. for 10 min.

| Compound | % inhibition of paw edema at 6th hr. [2] [%] | paw edema compared with Positive control group (G2) [2] | IL-6 [3] [pg/mL] | Serum interleukin-6 compared with positive control (G2) [3] | Percentage inhibition over control (serum IL-6) [3] [%] | TNF-Alpha [4] [pg/mL] | Serum TNF-Alpha compared with positive control (G2) [4] | Percentage inhibition over control (serum TNF-Alpha) [4] [%] | DNA fragmentation ([1]; HepG2, 250 μg/ml, 24 hrs) | Regulation in Terms of Folds (gene expression level of Nrf2 normalized to GAPDH) [6] [Folds] | also measured |
| --- | --- | --- | --- | --- | --- | --- | --- | --- | --- | --- | --- |
| CC(C)(N=NC(C)(C)C(=N)N)C(=N)N.Cl.Cl [AAPH, 2,2′-azobis(2-amidinopropane)dihydrochloride, reference compound] | – | – | – | – | – | – | – | – | – | – | DNA fragmentation ([1]; HepG2, AAPH (1 mM)): showed a smear in the gel indicating the DNA fragmentation |
| C[N+](C)(C)[C@@H](Cc1c[nH]c(=S)[nH]1)C(=O)[O-] [L-Ergothioneine] | 35.08 | significant decreases paw edema | 85.25 ± 0.30 | significantly decreased | 15.74 | 201.5 ± 1.96 | significantly decreased | 13.21 | did not exhibit any fragmentation of DNA | >1.0 | inhibition at 62.5 µg/mL ([5]; Homo sapiens, Test Conc. 62.5 μg/ml): 6.62 ± 0.88%; inhibition at 125 µg/mL ([5]; Homo sapiens, Test Conc. 125 μg/ml): 11 ± 1.31%; inhibition at 250 µg/mL ([5]; Homo sapiens, Test Conc. 250 μg/ml): 19 ± 1.05%; inhibition at 1000 µg/mL ([5]; Homo sapiens, Test Conc. 1000 μg/ml): 30 ± 1.52%; IC50 ([5]; Homo sapiens, concentration needed to inhibit cell growth by 50%, read-out: CTC 50 in μg/ml): > 1000 µg/mL |
| Nicotinamide mononucleotide chloride | 40.80 | significant decreases paw edema | 79.55 ± 0.95 | significantly decreased | 21.34 | 185.2 ± 4.37 | significantly decreased | 20.18 | did not exhibit any fragmentation of DNA | >1.0 | % Inhibition ([5]; Test Conc. 62.5 μg/ml): 5.26 ± 1.5%; % Inhibition ([5]; Test Conc. 125 μg/ml): 11.15 ± 3.32%; % Inhibition ([5]; Test Conc. 250 μg/ml): 17.56 ± 1.16%; % Inhibition ([5]; Test Conc. 500 μg/ml): 24.19 ± 1.59%; % Inhibition ([5]; Test Conc. 1000 μg/ml): 31.49 ± 0.79% |
